Two compounds from publication PMC9019100, “Development of NanoLuc-targeting protein degraders and a universal reporter system to benchmark tag-targeted degradation platforms” (Nature Communications, 2022) can be followed below.

One assay deals with MLKL-FKBP^F36V (Homo sapiens, UniProt P62942, F37V). In kind it is cell-based. The conditions noted are these: 5 h, low nM concentrations.
In a further assay the target is T1, Fibrillarin-FKBP^F36V (Homo sapiens, UniProt P62942, F37V).
T1 construct: endogenous in cells; host or cells: 293T, CRISPR/PITCh knock-in at the FBL locus
In kind it is cell-based. The conditions noted are these: 500 nM, 10 h.

Assay [1] has as its system MLKL^−/− HT29 cells expressing MLKL-FKBP^F36V. The assay is classed as cell-based. The conditions noted are these: for TNF+911+zVAD (PI exclusion): MLKL-/- + MLKL FKBPF36V, replicate columns.
Method: (§1) Cell death was assessed by flow cytometric analysis of PI exclusion. […] Cell death was assessed by flow cytometric analysis of PI exclusion. […] Cell death was assessed by flow cytometric analysis of PI exclusion. e N = 4, f N = 3 independent experiments (symbols), EB represent mean ± SD. g Western from MLKL^−/−CASP8^−/− HT29 cells stably expressing the doxycycline-inducible C-terminal fusion protein, MLKL-NanoLuc (MLKL-NLuc) and constitutively expressing the C-terminal fusion protein caspase-8-FKBP^F36V. […] Cell death was assessed using an IncuCyte and Cytotox-Red uptake. N = 3 independent experiments, one representative experiment shown, EB represent mean ± SD.
(§2) Degrader compounds or a DMSO vehicle control were added for 5 h, as stated in the Fig. legends. Cells were detached using Trypsin-EDTA (Merck) and resuspended in cell supernatants containing 10 μg/mL propidium iodide (PI). PI exclusion analysis was performed using an LSR II flow cytometer (Becton Dickinson, NJ) with 10,000 single-cell events per sample. Flow cytometry data were analysed using WEASEL version 2.7 software (Frank Battye).
A further assay deals with T2, caspase-8-FKBP^F36V (Homo sapiens, UniProt P62942, F37V).
T2 construct: expressed in transfected cells; host or cells: MLKL-/-CASP8-/- HT29, constitutive expression
In kind it is cell-based. The conditions noted are these: 5 h.

Assay [2] concerns the target recombinant NanoLuc enzyme (Oplophorus gracilirostris, UniProt Q9GV45, A31E/A60N/A81I/F95D/I117V/K70R/L54V/L99Q/M102K/N193R/P142E/Q151K/Q38R/Q45L/V71I/Y165I). In kind it is biochemical.
For assay [3], the target named is Halo-EGFP-NanoLuc-FKBP^F36V (H-E-N-F) fusion protein (UniProt P0A3G2+P62942+Q9GV45, A155T/A167V/A172T/A224E/A31E/A60N/A81I/C128F/C176G/D78G/E160K/E257K/F37V/F95D/H272N/I117V/K175M/K195N/K70R/L47V/L54V/L88M/L99Q/M102K/N193R/N227D/P142E/P291S/Q151K/Q38R/Q45L/S2A/S58T/T264A/V71I/Y165I/Y273L/Y87F). In kind it is cell-based. The conditions noted are these: 5 h.
For a further assay, the target named is T3, MLKL-NanoLuc (Oplophorus gracilirostris, UniProt Q9GV45, A31E/A60N/A81I/F95D/I117V/K70R/L54V/L99Q/M102K/N193R/P142E/Q151K/Q38R/Q45L/V71I/Y165I).
T3 construct: expressed in transfected cells; host or cells: MLKL-/- HT29 (A12); MLKL-/-CASP8-/- HT29 (A24); doxycycline-inducible
The experiment in a line: Western blot of MLKL^−/− HT29 cells expressing MLKL-NanoLuc. The assay is classed as cell-based, human. The conditions noted are these: 62.5-500 nM, 5 h. Here is the method:
Cells were seeded in 24-well plates ±doxycycline (20 ng/mL for HEK293T, 40 ng/mL for HT29) and incubated overnight (16–24 h) prior to degrader treatments, as stated in the Fig. legends. All timepoint experiments were performed as reverse timepoints in order to harvest all cells at the same time. At the indicated time points cells were lysed in NuPAGE LDS lysis buffer (Invitrogen) diluted to 1× in DISC lysis buffer (20 mM Tris-HCl pH7.5, 150 mM NaCl, 2 mM EDTA pH 8.0, 1% Triton X-100, 10% glycerol, H20)) supplemented with β-Mercaptoethanol (2%), protease and phosphatase inhibitors. Lysates were run through polypropylene columns (Pierce) to shred DNA. […] Membranes were blocked in 5% skim milk (Devondale) in TBS-T (TBS, 0.1% Tween-20) for 1 h prior to immunoblotting with primary antibodies overnight at 4 °C. Unless stated otherwise, all primary antibodies were diluted in TBS-T (TBS, 0.1% Tween-20) containing 5% BSA (Sigma A8022) and 0.04% sodium azide: HaloTag (1:1000, Promega; G9211), NanoLuc (1:500, Promega; N7000), β-actin (1:20,000, Sigma; A-1798), MLKL (1:1000, produced in-house; 3H1 clone)[39], FKBP (1:1000, R&D systems; 422513), caspase-8 (1:1000, Proteintech; 13423-1-AP), Histone H3 (1:1000, Abcam; ab10799), Cadherin (1:1000, Cell Signalling Technologies; 4068 T). […]
NC4. […] Cell death was assessed by flow cytometric analysis of PI exclusion. […]

In assay [4] the test system is MLKL^−/− HT29 cells expressing MLKL-NanoLuc. In kind it is cell-based. To be noted: for Live cells (%PI negative) after TNF+911+zVAD: MLKL-/- + MLKL NanoLuc, independent experiments.
Method: as §1, §2
The next assay deals with T4, MLKL-NLuc (Oplophorus gracilirostris, UniProt Q9GV45, A31E/A60N/A81I/F95D/I117V/K70R/L54V/L99Q/M102K/N193R/P142E/Q151K/Q38R/Q45L/V71I/Y165I).
T4 construct: expressed in transfected cells; host or cells: MLKL-/- HT29 (A12); MLKL-/-CASP8-/- HT29 (A24); doxycycline-inducible
In kind it is cell-based. The conditions noted are these: 5 h.

Setting [5] is: 5 h pre-treatment, then TSZ 24 h.

“And” between values parts separate entries of the source, which are not always exact repeats. Identical values can stand only once. Like-named read-outs stand apart in the source and are kept apart here.

Sequence of Halo-EGFP-NanoLuc-FKBP^F36V (H-E-N-F) fusion protein (Q9GV45 other isoform, or with tags, fused parts or gaps with the stated changes): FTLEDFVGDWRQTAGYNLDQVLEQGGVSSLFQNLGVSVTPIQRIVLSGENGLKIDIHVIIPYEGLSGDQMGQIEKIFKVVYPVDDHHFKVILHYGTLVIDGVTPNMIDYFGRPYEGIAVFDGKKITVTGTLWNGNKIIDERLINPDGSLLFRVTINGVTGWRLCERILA
Sequence of Halo-EGFP-NanoLuc-FKBP^F36V (H-E-N-F) fusion protein (P0A3G2 other isoform, or with tags, fused parts or gaps with the stated changes): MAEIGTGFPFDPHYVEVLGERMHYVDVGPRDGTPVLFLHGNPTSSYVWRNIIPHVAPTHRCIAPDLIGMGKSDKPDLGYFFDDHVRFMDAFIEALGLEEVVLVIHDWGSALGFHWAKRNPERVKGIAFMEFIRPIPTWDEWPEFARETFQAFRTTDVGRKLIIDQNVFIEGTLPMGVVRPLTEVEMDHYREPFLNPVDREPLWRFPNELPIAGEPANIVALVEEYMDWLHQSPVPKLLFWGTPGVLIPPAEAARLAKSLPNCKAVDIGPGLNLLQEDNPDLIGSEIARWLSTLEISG
Sequence of Halo-EGFP-NanoLuc-FKBP^F36V (H-E-N-F) fusion protein (P62942 whole entry F37V, the tested form may be a part): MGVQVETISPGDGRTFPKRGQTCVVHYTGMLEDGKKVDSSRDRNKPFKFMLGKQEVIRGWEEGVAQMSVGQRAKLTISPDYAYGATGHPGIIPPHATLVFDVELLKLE
T3 sequence (Q9GV45 other isoform, or with tags, fused parts or gaps with the stated changes): as the sequence (Q9GV45 other isoform, or with tags, fused parts or gaps with the stated changes) above
T4 sequence (Q9GV45 other isoform, or with tags, fused parts or gaps with the stated changes): as above
Sequence of recombinant NanoLuc enzyme (Q9GV45 other isoform, or with tags, fused parts or gaps with the stated changes): as above
Sequence of MLKL-FKBP^F36V (P62942 whole entry F37V): as the sequence (P62942 whole entry F37V, the tested form may be a part) above
T1 sequence (P62942 whole entry F37V): as the sequence (P62942 whole entry F37V, the tested form may be a part) above
T2 sequence (P62942 whole entry F37V): as the sequence (P62942 whole entry F37V, the tested form may be a part) above

As to `CC[C@H](C(=O)N1CCCC[C@H]1C(=O)O[C@H](CCc1ccc(OC)c(OC)c1)c1ccccc1OCC(=O)NCCCCCCC(=O)N[C@H](C(=O)N1C[C@H](O)C[C@H]1C(=O)N[C@@H](C)c1ccc(-c2scnc2C)cc1)C(C)(C)C)c1cc(OC)c(OC)c(OC)c1` [FV1], the “MLKL-FKBP^F36V protein level by Western blot” value at MLKL-FKBP^F36V is “no detectable protein”. Besides, the “Dmax (densitometry)” value on Fibrillarin-FKBP^F36V is recorded as ~ 95.9%. Moreover, the “concentration sustaining cell survival over 24 h” value in [1] (setting [5]) is reported as 3.9 nM. The “TNF+911+zVAD (PI exclusion)” value was 77.6 and 82.1 and 75.3 in assay [1] (degrader 3.9nM); 84.5 and 86.7 and 79.8 in assay [1] (degrader 7.8nM); 80.9 and 86.7 and 82.1 in assay [1] (degrader 31.25nM); 79.4 and 87 and 83.1 in assay [1] (degrader 62.5nM); 80.6 and 84.5 and 80.8 in assay [1] (degrader 250nM); 69.7 and 81.6 and 78.5 in [1] (degrader 500nM). In assay [1] (degrader 1000nM), the “TNF+911+zVAD (PI exclusion)” value was 63.8 and 77.3 and 74.7. For the same compound, on caspase-8-FKBP^F36V, the “depletion of caspase-8-FKBP^F36V” value is given as “could be depleted”.
On to `CCc1cccc(N(CC)C(=O)Cn2c(C(=O)NC3CCC(C(=O)NCCCCCCCC(=O)NCCCCNc4cccc5c4C(=O)N(C4CCC(=O)NC4=O)C5=O)CC3)cc3ccccc32)c1` (stereo not shown) [NC4], for which, in [2], the “reduced inhibition of NanoLuc enzymatic activity compared to the parent inhibitor (NanoLuc inhibitor 2)” value is recorded as ~ 30 fold. Besides, in assay [3] (125-500 nM), the “degradation of the H-E-N-F substrate protein by Western blot, comparison of NanoTACs” value is recorded as “consistently outperforming the first analogue NC1”. For the same compound, in [3] (Western blot), the “low concentration triggering degradation of the fusion protein” value was ~ 30 nM. In addition, the “degradation of MLKL-NanoLuc, comparison of NanoTACs” value at MLKL-NanoLuc is listed as “most effective degradation profile”. Further, in [4] (setting [5]), the “effect on MLKL-NanoLuc-driven necroptosis” value was “sufficient to reduce MLKL-NanoLuc-driven necroptosis”. The “Live cells (%PI negative) after TNF+911+zVAD” value in assay [4] (31.25nM) was 46.4 and 73.2 and 58.1; in assay [4] (62.5nM), 53.4 and 72.4 and 68.5; in assay [4] (250nM), 58.1 and 71.5 and 68.6; in assay [4] (500nM) it was 54.7 and 68.7 and 64.4; in assay [4] (1000nM) it was 53.1 and 66.7 and 61.4. At MLKL-NLuc, the “depletion of MLKL-NLuc” value is listed as “could be depleted”.
